Assay results taken from PMC9967051, “(S)-N-Benzyl-1-phenyl-3,4-dihydroisoqunoline-2(1H)-carboxamide Derivatives, Multi-Target Inhibitors of Monoamine Oxidase and Cholinesterase: Design, Synthesis, and Biological Activity” (Molecules, 2023).
Read-outs that look alike come from different tables or passages of the source.

Tests used:
MAO = MAO activity assay (total MAO); type: biochemical
Protocol: (§1) The enzyme activity analysis was performed according to the procedure reported by Matsumoto et al. with slight modifications. All materials used in the enzymatic assays were purchased from Aladdin Reagent Chemicals. […] The concentrations of the synthesized compounds altered from 0.001 µM to 100 µM for the MAO-A and -B enzyme activity inhibition. […] The enzymatic reactions were caused by the addition of MAO-A (40 µg/mL) or MAO-B (20 µg/mL), and cultured at 37 °C for 30 min. The enzyme reactions were stopped through the addition of 2N NaOH for 75 µL. […] The inhibitory effect of enzyme activity was calculated as a percentage of product formation compared to the corresponding control with no inhibitor. A control was established to determine the interference of the tested compounds to the fluorescence assay, and the enzyme or substrate was added after the reaction stopped.

[1] = set-up: method as in doi:10.1007/s00044-018-2261-2; conditions: forced swimming test, p< 0.001; cited from earlier work
MAO-A [2] = molecular target: T1, MAO-A (Homo sapiens, UniProt P21397); assay: MAO activity assay, MAO-A; type: biochemical
T1 construct: purchased Aladdin Reagent Chemicals
T1 sequence (P21397 1-527): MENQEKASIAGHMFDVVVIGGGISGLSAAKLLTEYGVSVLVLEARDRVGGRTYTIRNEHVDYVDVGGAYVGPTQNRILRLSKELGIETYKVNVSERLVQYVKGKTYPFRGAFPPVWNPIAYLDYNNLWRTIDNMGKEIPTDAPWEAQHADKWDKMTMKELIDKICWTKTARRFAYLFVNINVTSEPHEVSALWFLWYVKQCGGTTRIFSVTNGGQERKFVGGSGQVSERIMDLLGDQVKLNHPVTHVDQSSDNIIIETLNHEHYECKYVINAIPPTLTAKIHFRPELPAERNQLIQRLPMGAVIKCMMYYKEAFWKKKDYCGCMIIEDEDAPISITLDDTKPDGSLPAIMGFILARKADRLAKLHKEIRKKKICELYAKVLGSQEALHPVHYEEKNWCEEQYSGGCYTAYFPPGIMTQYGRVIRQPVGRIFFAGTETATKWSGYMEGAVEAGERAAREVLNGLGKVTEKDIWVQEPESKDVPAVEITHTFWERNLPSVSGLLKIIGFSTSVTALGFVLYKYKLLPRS
Protocol: as §1

MAO-B [3] = molecular target: T2, MAO-B (Homo sapiens, UniProt P27338); assay: MAO activity assay, MAO-B; type: biochemical
T2 construct: purchased Aladdin Reagent Chemicals
T2 sequence (P27338 1-520): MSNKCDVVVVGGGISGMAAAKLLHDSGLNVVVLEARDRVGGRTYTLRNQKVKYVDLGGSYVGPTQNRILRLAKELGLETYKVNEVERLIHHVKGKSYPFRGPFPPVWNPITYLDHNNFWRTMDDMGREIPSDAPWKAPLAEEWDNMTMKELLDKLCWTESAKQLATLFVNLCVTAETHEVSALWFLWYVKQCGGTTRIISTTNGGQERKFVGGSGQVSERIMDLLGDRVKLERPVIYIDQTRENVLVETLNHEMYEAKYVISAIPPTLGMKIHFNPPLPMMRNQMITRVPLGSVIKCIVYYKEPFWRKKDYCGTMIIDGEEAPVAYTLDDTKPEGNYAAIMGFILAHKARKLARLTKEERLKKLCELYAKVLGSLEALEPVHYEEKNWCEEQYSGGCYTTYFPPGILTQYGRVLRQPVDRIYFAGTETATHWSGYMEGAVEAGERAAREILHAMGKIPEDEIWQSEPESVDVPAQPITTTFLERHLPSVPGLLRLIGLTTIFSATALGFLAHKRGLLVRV
Protocol: as §1

MTT cytotoxicity test = type: cell-based; conditions: mouse; L929 cells, compared with the blank control, 3.125 to 100 μM
Protocol: (§2) L929 cells in the logarithmic growth phase were selected, and the cell density was adjusted to 2 × 10^4 per well by a cell counter. The 96-well plate was inoculated in a 96-well plate, and the 96-well plate inoculated with cells was cultured in a 37 °C 5% carbon dioxide cell incubator for 24 h. Then, the medium containing 100 μM of the compound to be tested was added (the blank group was added to the medium without drug), shaken gently, and placed in a 5% carbon dioxide cell incubator at 37 °C for 24 h. Each concentration was repeated for […].
(§3) The assay detects live cells, but not dead cells, and the resulting signal depends on how activated the cells are. […] Therefore, MTT has been used to establish quantitative colorimetric assays for mammalian cell survival and proliferation. Therefore, this method can be used to measure cytotoxicity, proliferation, or activation. After 24 h, 20 μL of […] MTT solution (prepared in PBS with pH 7.6) was added in the dark, and cultured in a cell incubator for another 4 h. After 4 h, the 96 plate was taken out to discard the original medium, and 160 μL of DMSO was added, placed on a shaker, and mixed for about 10 min. Then, a microplate reader was used to measure its absorbance at 490 nm, and the results were recorded and analyzed.

L929 cells [4] = assay: MTT cytotoxicity test; type: cell-based; conditions: MTT, 3.125 to 100 μM
Protocol: as §2, §3

L929 cells [5] = assay: AO fluorescent staining cell viability; type: cell-based; conditions: 100 μM, compared with the control group
Protocol: Using the AO Fluorescent Staining Kit, AO is a tricyclic heteroaromatic dye that can penetrate cells with intact cell membranes and embed nuclear DNA, making them emit bright green fluorescence. L929 cells were selected from the logarithmic growth phase, and the cell density was adjusted to 8 × 10^5 per well with a cell counter to inoculate in a 6-well plate, and the 6-well plate was placed in a 37 °C 5% carbon dioxide cell incubator for 12 h. It grew completely adhering to the wall. After 12 h, 1 mL of medium containing 100 μM of the compound to be tested was added (for the blank group, drug-free medium was added), shaken gently, and placed in a 5% carbon dioxide cell incubator at 37 °C for 12 h. After 12h, the medium was discarded, PBS was added to wash once, 1 mL of PBS and 80 μL of AO solution (prepared according to the kit instructions) were slowly added in the dark, and mixed for 5 min to make the staining uniform and sufficient. The staining was aspirated after 5 min, washed 1–2 times with PBS, and observed under a fluorescence microscope, the results were recorded and analyzed.

BChE [6] = molecular target: T3, BChE (Homo sapiens, UniProt P06276); assay: biochemical; conditions: compounds concentration 100 µM; read-out: Inhibition Rate BChE
Protocol: Inhibition of AChE and BChE was measured through the spectrophotometric method developed by Ellman’s method with slight modifications. The analysis protocol contained 96-well plates (100 µL per well). Each well involved 20 µL of assay buffer solution, 20 µL of the test sample, and 40 µL of 0.2 U/mL of AChE or BChE. The mixture was incubated for 10 min at 25 °C followed by the addition of substrate (20 µL). For AChE inhibition assay, acetylthiocholine iodide (ATCI, 0.001 mol/L), while for BChE assay, butyrylthiocholine chloride (BTCCl, 0.001 mol/L) was added to it. The mixture was incubated at 37 °C for 15 min. Ellman reagent (5,5′-dithio-bis(2-nitrobenzoic acid), DTNB, 0.001 mol/L) was added. […] The blank analysis was performed. All the analyses were performed in triplicate. Inhibition rate of experimental sample or positive control group (%) = [(control group-blank background)-(experimental sample or positive control group -sample background)]/(control-blank background) × 100%.

[7] = molecular target: electric eel acetylcholinesterase (EeAChE); conditions: cited from earlier work
[8] = molecular target: horse serum butyrylcholinesterase (EqBChE); conditions: cited from earlier work
MAO-A [9] = molecular target: T1, MAO-A; conditions: cited from earlier work
MAO-B [10] = molecular target: T2, MAO-B; conditions: cited from earlier work
AChE = AChE (Homo sapiens, UniProt P22303); conditions: cited from earlier work
BChE [11] = molecular target: T3, BChE; conditions: cited from earlier work

T3 sequence (P06276 29-602): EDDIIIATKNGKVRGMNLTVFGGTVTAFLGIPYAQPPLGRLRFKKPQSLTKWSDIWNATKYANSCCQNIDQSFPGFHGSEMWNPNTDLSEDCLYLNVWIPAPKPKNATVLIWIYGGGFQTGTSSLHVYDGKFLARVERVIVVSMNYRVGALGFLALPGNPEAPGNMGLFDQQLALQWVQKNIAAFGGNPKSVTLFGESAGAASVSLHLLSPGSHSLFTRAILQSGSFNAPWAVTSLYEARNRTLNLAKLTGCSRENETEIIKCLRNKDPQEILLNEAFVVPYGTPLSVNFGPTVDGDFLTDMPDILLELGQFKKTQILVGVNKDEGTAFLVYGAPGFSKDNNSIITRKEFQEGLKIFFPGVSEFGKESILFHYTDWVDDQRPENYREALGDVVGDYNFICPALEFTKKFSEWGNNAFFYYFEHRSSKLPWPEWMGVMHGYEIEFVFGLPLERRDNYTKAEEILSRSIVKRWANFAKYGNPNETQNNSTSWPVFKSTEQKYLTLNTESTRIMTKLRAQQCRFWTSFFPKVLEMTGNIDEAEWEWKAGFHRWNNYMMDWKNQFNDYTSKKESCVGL
AChE, sequence (P22303 32-614): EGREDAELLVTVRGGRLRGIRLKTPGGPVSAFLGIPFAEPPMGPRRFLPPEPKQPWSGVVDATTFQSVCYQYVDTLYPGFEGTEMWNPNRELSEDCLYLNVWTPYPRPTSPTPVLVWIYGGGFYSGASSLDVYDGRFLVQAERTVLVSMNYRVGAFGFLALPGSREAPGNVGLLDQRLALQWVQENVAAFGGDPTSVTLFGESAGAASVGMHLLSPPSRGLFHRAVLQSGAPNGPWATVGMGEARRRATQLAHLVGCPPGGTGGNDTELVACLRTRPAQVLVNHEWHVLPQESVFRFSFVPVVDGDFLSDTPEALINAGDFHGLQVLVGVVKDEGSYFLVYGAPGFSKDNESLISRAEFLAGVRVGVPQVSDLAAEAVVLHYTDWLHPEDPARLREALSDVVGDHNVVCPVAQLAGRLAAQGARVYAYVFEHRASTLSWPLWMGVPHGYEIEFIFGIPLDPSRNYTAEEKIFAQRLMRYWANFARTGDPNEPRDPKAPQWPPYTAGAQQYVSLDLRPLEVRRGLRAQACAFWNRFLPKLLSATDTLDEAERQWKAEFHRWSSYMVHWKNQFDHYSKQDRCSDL

Compound	IC50 (MAO) [µM]	IC50 (MAO-A [2]) [µM]	IC50 (MAO-B [3]) [µM]	viability at 24 h (MTT cytotoxicity test) [%]	cytotoxicity against L929 cells (L929 cells [4])	toxicity toward L929 cells (AO fluorescence staining) (L929 cells [5])	further results
O=C(NCc1ccccc1)N1CCc2ccccc2[C@@H]1c1ccccc1 [2a, (S)-N-benzyl-1-phenyl-3,4-dihydroisoquinoline-2(1H)-carboxamide]	–	–	–	–	–	–	Inhibition Rate for MAO (MAO; compounds concentration 100 µM): 29.2%; duration of immobility [1]: 11.0 ± 7.1 s
O=C(NCc1cccc(Br)c1)N1CCc2ccccc2[C@@H]1c1ccccc1 [2i, (S)-N-(m-bromobenzyl)-1-phenyl-3,4-dihydroisoquinoline-2(1H)-carboxamide]	1.34	1.56	4.3	> 90	no obvious cytotoxicity	no significant toxicity	–
O=C(NCc1ccc(Br)cc1)N1CCc2ccccc2[C@@H]1c1ccccc1 [2j, (S)-N-(p-bromobenzyl)-1-phenyl-3,4-dihydroisoquinoline-2(1H)-carboxamide]	1.93	2.48	> 100	> 90	no obvious cytotoxicity	no significant toxicity	inhibition at 100 µM (BChE [6]): 34.5%
Cc1ccccc1CNC(=O)N1CCc2ccccc2[C@@H]1c1ccccc1 [2p, (S)-N-(o-methylbenzyl)-1-phenyl-3,4-dihydroisoquinoline-2(1H)-carboxamide]	0.774	2.92	3.88	> 90	no obvious cytotoxicity	no significant toxicity	–
COc1cccc(CNC(=O)N2CCc3ccccc3[C@@H]2c2ccccc2)c1 [2t, (S)-N-(m-methoxybenzyl)-1-phenyl-3,4-dihydroisoquinoline-2(1H)-carboxamide]	2.08	2.5	1.61	> 90	no obvious cytotoxicity	no significant toxicity	inhibition at 100 µM (BChE [6]): 55%
COc1ccc(CNC(=O)N2CCc3ccccc3[C@@H]2c2ccccc2)c(OC)c1 [2v, (S)-N-(2,4-dimethoxybenzyl)-1-phenyl-3,4-dihydroisoquinoline-2(1H)-carboxamide]	0.958	3.51	3.52	> 90	no obvious cytotoxicity	no significant toxicity	–
C[n+]1cc2cc3c(cc2c2ccc4cc5c(cc4c21)OCO5)OCO3 [avicine]	–	–	–	–	–	–	IC50 [7]: 0.15 µM; IC50 [8]: 0.88 µM; IC50 (MAO-A [9]): 0.41 µM
COc1ccc2c(c[n+](C)c3c4cc5c(cc4ccc23)OCO5)c1OC [chelerythrine]	–	–	–	–	–	–	IC50 (MAO-B [10]): > 20 µM
COc1cc2c3c(c1OC)-c1cc4c(cc1CC3NCC2)OCO4 (stereo not drawn) [nornantenine]	–	–	–	–	–	–	IC50 (AChE): 206 µM; IC50 (BChE [11]): 94.4 µM
COc1ccc(CC2c3cc(O)c(OC)cc3CCN2C)cc1O (stereo not drawn) [reticuline]	–	–	–	–	–	–	IC50 (AChE): 301 µM; IC50 (BChE [11]): 65 µM
